PMC10170656 (RSC Chemical Biology, 2023)
Entries after “also recorded” stand apart in the source; their conditions may differ.

Tests used:
TDP1 = TDP1 (Homo sapiens, UniProt Q9NUW8); assay: biochemical; conditions: TDP1 IC50, Table 2: triazole, ether and phthalic acid isostere derivatives
HCT116 cells = assay: Synergistic effect of TDP1 inhibitors with camptothecin; format: cell-based, human; conditions: concentrations below CC50, 72 h
TDP2 = target: T1, TDP2 (Homo sapiens, UniProt O95551); format: biochemical
T1 sequence (O95551 1-362): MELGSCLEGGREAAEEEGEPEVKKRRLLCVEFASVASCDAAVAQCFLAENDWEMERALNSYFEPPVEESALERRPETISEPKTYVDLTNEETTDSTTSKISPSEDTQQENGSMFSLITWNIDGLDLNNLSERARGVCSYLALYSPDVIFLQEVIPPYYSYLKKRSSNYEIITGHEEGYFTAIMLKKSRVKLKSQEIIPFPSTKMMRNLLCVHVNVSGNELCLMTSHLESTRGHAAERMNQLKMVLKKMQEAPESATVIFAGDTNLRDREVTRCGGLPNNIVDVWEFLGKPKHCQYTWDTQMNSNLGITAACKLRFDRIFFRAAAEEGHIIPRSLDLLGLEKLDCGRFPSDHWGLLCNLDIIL

[1] = Survival curve and cytotoxicity in HCT116 cells; format: cell-based; conditions: human, HCT116 cells (colon cancer cell line)

TDP1, sequence (Q9NUW8 whole entry): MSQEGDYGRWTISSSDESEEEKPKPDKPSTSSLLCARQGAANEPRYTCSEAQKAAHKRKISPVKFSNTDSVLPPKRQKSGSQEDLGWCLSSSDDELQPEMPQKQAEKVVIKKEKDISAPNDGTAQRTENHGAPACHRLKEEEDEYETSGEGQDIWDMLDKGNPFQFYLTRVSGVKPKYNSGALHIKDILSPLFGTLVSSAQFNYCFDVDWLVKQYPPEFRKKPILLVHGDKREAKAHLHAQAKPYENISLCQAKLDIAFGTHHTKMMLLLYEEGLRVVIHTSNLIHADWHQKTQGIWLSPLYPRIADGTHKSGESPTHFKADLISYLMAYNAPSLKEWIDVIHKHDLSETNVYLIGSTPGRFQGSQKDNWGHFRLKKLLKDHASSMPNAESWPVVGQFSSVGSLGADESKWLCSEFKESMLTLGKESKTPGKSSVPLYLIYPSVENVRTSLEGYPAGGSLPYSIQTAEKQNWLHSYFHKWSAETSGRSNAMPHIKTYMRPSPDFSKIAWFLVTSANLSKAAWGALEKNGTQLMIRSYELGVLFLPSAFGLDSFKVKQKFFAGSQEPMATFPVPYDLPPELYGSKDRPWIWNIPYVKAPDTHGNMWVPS

IC50 (TDP1) | inhibitory potency against TDP1 relative to TDP2 (TDP2) | Compound | synergy with the TOP1 inhibitor CPT (HCT116 cells) | CC50 at 72 h [1]
3.3 ± 0.2 µM | 8 fold | N#Cc1ccc(-c2ccc(Cn3cc(-c4ccc(-c5nc6cc(-c7ccccc7)ccn6c5Nc5ccc(C(=O)O)cc5)cc4)nn3)cc2)nc1 [Compound 7d] | act synergistically; also recorded: synergize | 136 µM
> 100 µM | – | O=C(O)c1ccc(Nc2c(-c3ccccc3)nc3cc(-c4ccccc4)ccn23)cc1C(=O)O [Compound 9a, 4-((2,7-diphenylimidazo[1,2-a]pyridin-3-yl)amino)phthalic acid] | – | –
11.3 ± 1.93 µM | – | O=C(O)c1ccc(Nc2c(-c3ccc(CCOCc4ccc(-c5ccccc5)cc4)cc3)nc3cc(-c4ccccc4)ccn23)cc1C(=O)O [Compound 9b, 4-((2-(4-(2-([1,1'-biphenyl]-4-ylmethoxy)ethyl)phenyl)-7-phenylimidazo[1,2-a]pyridin-3-yl)amino)phthalic acid] | – | –
19.8 ± 1.35 µM | – | O=C(O)c1ccc(Nc2c(-c3ccc(CCOCc4ccc(-c5ccccn5)cc4)cc3)nc3cc(-c4ccccc4)ccn23)cc1C(=O)O [Compound 9c, 4-((7-phenyl-2-(4-(2-((4-(pyridin-2-yl)benzyl)oxy)ethyl)phenyl)imidazo[1,2-a]pyridin-3-yl)amino)phthalic acid] | – | –
